Broadly, the EC50 is the concentration needed to bring the measured effect to its halfway point. What is called IC50 is the midpoint of a concentration-inhibition curve. The low end stands for greater potency in that assay, the high end for weaker potency in that assay.

This assay relates to CEM cells HIV-1 protection, formazan growth assay. Nature of the assay: NCI AIDS Antiviral Assay. To be noted: for IC50: measured here: growth of uninfected CEM cells. In outline:
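CEM (human) cells, HIV-1 infected vs uninfected, 5-point dosing, formazan growth read-out. Retest threshold 50% protection.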

Activity calls are given as the source filed them.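 How the source made its calls: active means compounds giving half or more protection of infected cells from virus-caused growth loss, again on retest; inactive means the rest.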 Where a SMILES comes first, the peptide text is derived from it.

As for `CCC(C)C(NC(=O)C(CCCN=C(N)N)NC(=O)C(CC(=O)O)NC(=O)C(Cc1ccc(O)cc1)NC(=O)C(N)CC(C)C)C(=O)NC(C(=O)NC(CC(C)C)C(=O)NC(CCCN=C(N)N)C(=O)NC(Cc1ccc(O)cc1)C(=O)O)C(C)CC` (configuration not stated) (H-LYDRIILRY-OH; configuration not given here), the EC50 is more than 10.2 µM and the IC50 was more than 10.2 µM. As for `CC1=C(C(=O)Nc2cccc(Cl)c2)C(c2ccccc2F)C(C(=O)Nc2cccc(Cl)c2)=C(C)N1`, the EC50 was more than 14.1 µM and the IC50 was more than 14.1 µM. Consider `CCOP(=O)(CC(=O)C1CC1)OCC`, for which the result was inactive. In the case of `CC1(C)Oc2ccc3ccc(=O)oc3c2C(O)C1O` (configuration not stated), the EC50 is more than 200 µM and the IC50 was found to be 115 µM. The matching figures for `CC(=O)NC(CCC(=O)c1ccc(Cl)cc1)(C(=O)O)C(=O)O`: more than 200 µM and more than 200 µM. The matching figures for `CCOC(=O)CNC(=O)CNC(=O)CNC(=O)CNNc1c(OCc2ccccc2)c(=O)c1=O`: more than 200 µM and more than 200 µM. Taken in the same sequence, the figures for `CN(C)c1nc(NN)c2c(-c3ccccc3)c(-c3ccccc3)oc2n1` were more than 100 µM and more than 100 µM.

`Cc1n[nH]c(=O)n1/N=C/c1cccnc1`: the outcome was inactive. The same measure, in the same setting: next, `O=C1OC(=O)C2C1C1(c3ccccc3)OC2(c2ccccc2)c2c(Br)c(Br)c(Br)c(Br)c21` (configuration not stated): “inactive”. On the same count and under the same terms, with `Clc1cc(Cl)cc(N=C/C=C/Nc2cc(Cl)cc(Cl)c2)c1` the entry was “inactive”.

As to `N#CC(C#N)=CNC(N)=S`, the EC50 was more than 200 µM and the IC50 is more than 200 µM.

With `N#CN=C1N=S(=O)(c2ccccc2)c2ccccc21` (configuration not stated), the EC50 was more than 186 µM and the IC50 was 162 µM.

With `CC(C)(C)C1=C(Br)C(F)(C(C)(C)C)OP1(=O)c1ccccc1` (configuration not stated), the EC50 is more than 200 µM and the IC50 is 25.7 µM. In the case of `O=C(CC(C(=O)c1cccs1)c1cccs1)c1ccsc1` (configuration not stated), the EC50 was more than 200 µM and the IC50 was found to be 11.7 µM. Taken in the same sequence, the figures for `Cc1[nH]n(C(=O)Cc2ccccc2)c(=O)c1/C=C1\C(=O)C=Cc2ccccc21` were more than 51.3 µM and more than 51.3 µM.

For `CCCC(CC)C(C(=O)OCC)C1=NC(C)(C)CC(C)O1` (configuration not stated), the EC50 was more than 200 µM and the IC50 is more than 200 µM. Turning to `CCCCCCCCCCCc1c(O)c(O)cc2nc3cc(Cl)c(Cl)cc3nc12`, the EC50 was more than 16.6 µM and the IC50 was 5.37 µM. Taken in the same sequence, the figures for `CC(C)(C)N=NNc1cn(C2OC(CO)C(O)C2O)c(=O)[nH]c1=O` (configuration not stated) were more than 724 µM and more than 724 µM. Consider `C#CCNC(CSSCC(N)C(=O)O)C(=O)O` (configuration not stated), for which the EC50 was 6.92 µM and the IC50 is more than 200 µM. The matching figures for `FC1(F)ON2CCc3ccccc3C2[C@H]1c1ccccc1` (some centres not stated): more than 200 µM and 15.5 µM. On to `Nc1ncnc2c1nnn2C1C=CC(CP(=O)(O)O)C1` (configuration not stated), for which the EC50 was more than 200 µM and the IC50 was more than 200 µM. For `FC(F)(Oc1ccc2ccccc2c1)c1nc2ccccc2o1`, the EC50 was more than 200 µM and the IC50 is 25.7 µM. As to `C(=C\N1CCCCC1)/c1nnnn1-c1ccccc1`, the EC50 was more than 200 µM and the concentration for half-maximal inhibition (IC50) was 24 µM.

In the case of `c1cc(CCSSCCc2ccncc2)ccn1`, the EC50 is more than 200 µM and the IC50 came to 3.8 µM. Taken in the same sequence, the figures for `COP(=O)(OC)c1ccc(NCc2cc(O)ccc2O)cc1` were more than 55 µM and 7.94 µM. The matching figures for `Cc1nc2c(=O)n(-c3ccccc3)c3ccccc3c2o1`: more than 200 µM and 145 µM. The matching figures for `Cc1ccc(-c2c(C#N)c(-c3ccc(C)cc3)n(NS(=O)(=O)c3ccccc3)c(=O)c2C#N)cc1`: more than 200 µM and 22.9 µM. As to `Cc1ccc(S(=O)(=O)Nn2c(-c3ccccc3)c(C#N)c(-c3ccc([N+](=O)[O-])cc3)c(C#N)c2=O)cc1`, the EC50 was more than 200 µM and the half-maximal inhibitory concentration (IC50) worked out at 56.2 µM.

For `CCOC(=O)n1ccc2c(C(=O)OC)c(C(=O)OC)cc(/C(=C/C(=O)OC)C(=O)OC)c21`, the EC50 is more than 151 µM and the 50% inhibitory concentration (IC50) was 102 µM.

For the compound `O=C(O)COc1ccc(C(=O)/C(SS/C(C(=O)c2ccc(OCC(=O)O)c(Cl)c2Cl)=C2\C=C(c3ccc(Br)cc3)SS2)=C2/C=C(c3ccc(Br)cc3)SS2)c(Cl)c1Cl`, the result was inactive.

For the compound `CCC[CH2][Sn]1([CH2]CCC)[O]C(=O)c2ccc(C)cc2[O]1`, the result was inactive. Consider `COC(=O)C1C/C(=C/N(C)C)C(=S)N1` (configuration not stated), for which the EC50 was more than 200 µM and the IC50 was more than 200 µM. Consider `CC1CCC2CC1NC(=O)CCOCCC(=O)NC2(C)C` (configuration not stated), for which the EC50 was more than 45.7 µM and the IC50 was more than 45.7 µM. Regarding `COc1ccc(C(=CCC(C)C2CCC3[C@@H]4C(OC(C)=O)CC5CC(OC(C)=O)CC[C@]5(C)C4CC(OC(C)=O)[C@]23C)c2ccc(OC)cc2)cc1` (some centres not stated), the EC50 is more than 200 µM and the IC50 amounted to 95.5 µM. Take `O=c1oc(-c2ccccc2)c(-c2ccccc2)c(-c2ccccc2)c1-c1ccccc1`: the EC50 was more than 46.8 µM and the 50% inhibitory concentration (IC50) was 29.5 µM. The matching figures for `COc1ccc(/C(=N/O)c2ccccc2C2=Nc3ccccc3C(NCc3ccccc3)O2)cc1C` (configuration not stated): more than 200 µM and 22.4 µM. For the compound `COc1cc2ccc1-c1cc(ccc1O)CC1c3cc4c(cc3CCN1C)Oc1c(OC)cc3c(c1O4)C(C2)N(C)CC3` (configuration not stated), the result was inactive. For `N#CCCN(CCC#N)Cc1c(O)c(O)c(CN(CCC#N)CCC#N)c2ccccc12`, the half-maximal effective concentration (EC50) was 115 µM and the IC50 came to 126 µM. The matching figures for `CCOc1ncn(-c2ccc(NC(=S)Nc3cnccn3)cc2)n1`: 129 µM and more than 200 µM. As for `C[n+]1c2ccccc2c(/C=N\NS(=O)(=O)c2ccc(Cl)cc2)c2ccccc21`, the outcome was inactive.

Take `COc1ccc(-c2cc(=O)c3c(O)cc(OC)cc3o2)cc1`: the EC50 was 70.8 µM and the IC50 was determined as 74.1 µM. The matching figures for `COC(=O)C(Cc1nc2ccc(Cl)cc2[nH]c1=O)C(=O)C(=O)Nc1ccccc1[N+](=O)[O-]` (configuration not stated): more than 148 µM and more than 148 µM. The matching figures for `CN1C(=O)C2CC(O)C(SC3CC4C(=O)N(C)C(=O)C4CC3O)CC2C1=O` (configuration not stated): more than 200 µM and more than 200 µM. The matching figures for `N#CC1(C#N)C(C#N)(C#N)C1(C#N)C(N)=O`: more than 200 µM and more than 200 µM. Consider `O=C(O)[C@@H]1OCCOCCO[C@@H](C(=O)O)[C@H](C(=O)O)OCCOCCO[C@H]1C(=O)O`, for which the EC50 was more than 562 µM and the IC50 is more than 562 µM. With `CN(Cc1ccccc1)C(=NC#N)N(C)Cc1ccccc1`, the EC50 is more than 170 µM and the IC50 came to 129 µM. The matching figures for `COc1ccc2oc(=O)c(CC=C(C)C)c(O)c2c1C`: more than 200 µM and more than 100 µM. Take `COc1cc2c(cc1OC)C(Cl)C(c1ccc(F)cc1)=C2Cl` (configuration not stated): the outcome was inactive. In the case of `O=[N+]([O-])c1nccn1CCC[n+]1ccccc1`, the EC50 is more than 200 µM and the IC50 is more than 200 µM. Regarding `COc1ccc(OC)c(/C=C/c2ccnc3ccccc23)c1`, the EC50 was 0.0631 µM and the IC50 turned out to be 1.29 µM. Taken in the same sequence, the figures for `COc1nc2c(c(=O)[nH]1)N=C(c1ccc([N+](=O)[O-])cc1)CC(c1ccccc1)N2` (configuration not stated) were more than 200 µM and 46.8 µM. The matching figures for `O=C(O)c1ccccc1-c1c2ccc(=O)c(Cl)c-2oc2c(Cl)c(O)ccc12`: 17.8 µM and 56.2 µM.

On to `Nc1ccc(S(=O)(=O)Nc2nccs2)cc1N=Nc1ccccc1[N+](=O)[O-]`, for which the EC50 was more than 200 µM and the half-inhibitory concentration (IC50) was more than 200 µM. As for `C/C(CC(=O)Nc1ccccc1[N+](=O)[O-])=N\NC(N)=O`, the EC50 is more than 468 µM and the IC50 is more than 468 µM. Turning to `COCOc1ccc(C2(O)Oc3cc(OCOC)ccc3C2C)c(O)c1` (configuration not stated), the EC50 was more than 200 µM and the IC50 worked out at 24 µM. Taken in the same sequence, the figures for `CC(=O)C1C(=O)C(=O)N(c2ccc([N+](=O)[O-])cc2Cl)C1=O` (configuration not stated) were more than 200 µM and 95.5 µM. The matching figures for `O=C(C(c1ccccc1)c1ccccc1)N1CCN(c2ccccn2)CC1`: more than 89.1 µM and 29.5 µM. Consider `O=c1c2cccnc2ncn1CCN1CCOCC1`, for which the outcome was inactive.

`CC(C)(C)C1=CC(=C(c2ccc(-c3c4nc(c(-c5ccc(C(=C6C=C(C(C)(C)C)C(=O)C(C(C)(C)C)=C6)c6cc(C(C)(C)C)c(O)c(C(C)(C)C)c6)cc5)c5ccc([nH]5)c(-c5ccc(C(=C6C=C(C(C)(C)C)C(=O)C(C(C)(C)C)=C6)c6cc(C(C)(C)C)c(O)c(C(C)(C)C)c6)cc5)c5nc(c(-c6ccc(C(=C7C=C(C(C)(C)C)C(=O)C(C(C)(C)C)=C7)c7cc(C(C)(C)C)c(O)c(C(C)(C)C)c7)cc6)c6ccc3[nH]6)C=C5)C=C4)cc2)c2cc(C(C)(C)C)c(O)c(C(C)(C)C)c2)C=C(C(C)(C)C)C1=O`: the EC50 is more than 100 µM and the IC50 was more than 100 µM. For the compound `C=[N+](CNC(=O)CNC(=O)C(Cc1ccc([N+](=O)[O-])cc1)NC(=O)OC(C)(C)C)C(=O)CNC(=O)C(Cc1ccc([N+](=O)[O-])cc1)NC(=O)OC(C)(C)C` (configuration not stated), the EC50 is more than 200 µM and the IC50 worked out at 89.1 µM. Taken in the same sequence, the figures for `CCCN=C(N)NC#N` were more than 708 µM and more than 708 µM. Turning to `O=C(N/N=C/c1ccc(Cl)cc1)c1ccccc1Nc1ccccc1C(=O)N/N=C/c1ccc(Cl)cc1`, the EC50 was 55 µM and the IC50 was more than 200 µM.

Turning to `Oc1ccc(Cn2c(-c3ccc(O)cc3)nc3ccccc32)cc1`, the EC50 was more than 794 µM and the concentration for half-maximal inhibition (IC50) is more than 794 µM. As for `CCOP(=O)(OCC)C(Cc1ccc(OC)cc1)NC(=O)C(CC(C)C)NC(=O)OCc1ccccc1` (configuration not stated), the EC50 was more than 126 µM and the concentration for half-maximal inhibition (IC50) was 8.91 µM. Taken in the same sequence, the figures for `CC(C)=CC1CC(C)C2(CCC3(C)CC4C5/C(=C\CC32)C(=O)OC5CC4(C)O)O1` (configuration not stated) were more than 2 µM and 0.398 µM. The matching figures for `O=[N+]([O-])c1cc([As](=O)(O)O)ccc1O`: more than 200 µM and more than 200 µM.

These data come from PubChem BioAssay AID179 (DTP/NCI, 2004).
